Measurements: ChEMBL document CHEMBL5537201, “Discovery of Unique Bis-Substituted Aromatic Amide Derivatives as Novel Highly Potent Antibiotics for Combating Methicillin-Resistant Staphylococcus aureus (MRSA)” (J Med Chem, 2024)
In brackets after ≈: the same amount, converted by molar mass. Activity calls are given as the source filed them. No cut-off for these calls is given here.

Experiments:
Staphylococcus aureus [1] = assay: Antimicrobial activity against Staphylococcus aureus ATCC6538 assessed as reduction in bacterial growth incubated for 24 hrs by two-fold broth dilution method; assay type: functional
Staphylococcus aureus [2] = assay: Antimicrobial activity against Staphylococcus aureus N315 assessed as reduction in bacterial growth incubated for 24 hrs by two-fold broth dilution method; assay type: functional
Streptomyces albus = assay: Antimicrobial activity against Streptomyces albus SHBC D11158 assessed as reduction in bacterial growth incubated for 24 hrs by two-fold broth dilution method; assay type: functional
[3] = Cytotoxicity against human HaCaT cells assessed as reduction in cell viability measured after 24 hrs by CCK-8 method; assay type: toxicity, cell-based
Staphylococcus aureus [4] = assay: Antimicrobial activity against Staphylococcus aureus ATCC6538 assessed as membrane fluidity measured after 35 mins; assay type: functional, organism-based
Staphylococcus aureus [5] = assay: Antimicrobial activity against methicillin resistant Staphylococcus aureus clinical isolate MRS108 assessed as reduction in bacterial growth incubated for 24 hrs by two-fold broth dilution method; assay type: functional
Staphylococcus aureus [6] = assay: Antimicrobial activity against methicillin resistant Staphylococcus aureus clinical isolate MRS152 assessed as reduction in bacterial growth incubated for 24 hrs by two-fold broth dilution method; assay type: functional
Staphylococcus aureus [7] = assay: Antimicrobial activity against methicillin resistant Staphylococcus aureus clinical isolate MRS153 assessed as reduction in bacterial growth incubated for 24 hrs by two-fold broth dilution method; assay type: functional
Staphylococcus aureus [8] = assay: Antimicrobial activity against methicillin resistant Staphylococcus aureus clinical isolate MRS84 assessed as reduction in bacterial growth incubated for 24 hrs by two-fold broth dilution method; assay type: functional
Staphylococcus aureus [9] = assay: Antibiofilm activity against Staphylococcus aureus clinical isolate MRS153 assessed as reduction in biofilm formation at 1 to 32 ug/ml incubated for 20 to 22 hrs by crystal violet staining based analysis; assay type: functional, organism-based; details: dose 1-32 µg/ml, time 20-22 hrs
Staphylococcus aureus [10] = assay: Induction of membrane morphological changes in Staphylococcus aureus ATCC6538 assessed as cell surface wrinkling at 5 times of MIC measured after 0.5 hrs by FE-SEM analysis; assay type: functional, organism-based
Staphylococcus aureus [11] = assay: Induction of membrane morphological changes in Staphylococcus aureus ATCC6538 assessed as formation of cell pit at 5 times of MIC measured after 0.5 hrs by FE-SEM analysis; assay type: functional, organism-based
Cell membrane [12] = assay: Induction of Outer membrane disruption in Staphylococcus aureus ATCC6538 assessed as […] in fluorescence intensity measured upto 30 mins by NPN dye based fluorescence analysis; assay type: cell membranes
Cell membrane [13] = assay: Induction of inner membrane permeabilization in methicillin resistant Staphylococcus aureus clinical isolate MRS153 assessed as increase in blue fluorescence at 5 ug/ml by DAPI staining based analysis; assay type: cell membranes; details: dose 5.0 µg/ml
Cell membrane [14] = assay: Induction of inner membrane permeabilization in methicillin resistant Staphylococcus aureus clinical isolate MRS153 assessed as increase in red fluorescence at 5 ug/ml by PI staining based analysis; assay type: cell membranes; details: dose 5.0 µg/ml
Staphylococcus aureus [15] = assay: Induction of drug resistance in Staphylococcus aureus ATCC6538 assessed as change in MIC measured after 10 passages; assay type: functional
Staphylococcus aureus [16] = assay: Bactericidal activity against Staphylococcus aureus ATCC6538 at 5 ug/ml measured upto 150 mins; assay type: functional, organism-based; details: dose 5.0 µg/ml
Staphylococcus aureus [17] = assay: Bactericidal activity against methicillin-resistant Staphylococcus aureus clinical isolate MRS1 at 5 ug/ml measured upto 150 mins; assay type: functional, organism-based; details: dose 5.0 µg/ml
Staphylococcus aureus [18] = assay: Antimicrobial activity against vancomycin-resistant Staphylococcus aureus assessed as reduction in bacterial growth incubated for 24 hrs by two-fold broth dilution method; assay type: functional
Staphylococcus aureus [19] = assay: Bactericidal activity against vancomycin-resistant Staphylococcus aureus ATCC6538 measured upto 120 mins by colony counting method; assay type: functional, organism-based
Cell membrane [20] = assay: Disruption of cell membrane integrity in Staphylococcus aureus ATCC6538 assessed as increase in fluorescence intensity at 1 to 26 times MIC measured upto 36 mins ethidium bromide uptake assay; assay type: cell membranes
Cell membrane [21] = assay: Induction of cytoplasmic membrane depolarization in Staphylococcus aureus ATCC6538 assessed as increase in fluorescence intensity measured upto 120 mins by DiSC3(5) dye based fluorescence method; assay type: cell membranes
Cell membrane [22] = assay: Induction of cytoplasmic membrane depolarization in methicillin resistant Staphylococcus aureus clinical isolate MRS153 assessed as increase in fluorescence intensity measured upto 120 mins by DiSC3(5) dye based fluorescence method; assay type: cell membranes
Staphylococcus aureus [23] = assay: Antimicrobial activity against methicillin resistant Staphylococcus aureus clinical isolate MRS153 assessed as membrane fluidity measured after 35 mins; assay type: functional, organism-based
Staphylococcus aureus [24] = assay: Antimicrobial activity against Staphylococcus aureus ATCC6538 assessed as proton dynamic dissipation at pH 5 to 11; assay type: functional, organism-based
Peptidoglycan [25] = assay: Binding affinity to Staphylococcus aureus ATCC6538 peptidoglycan assessed as change in MIC at upto 256 ug/ml measured after 22 hrs; details: dose <= 256.0 µg/ml
Peptidoglycan [26] = assay: Binding affinity to methicillin resistant Staphylococcus aureus clinical isolate MRS153 peptidoglycan assessed as change in MIC at upto 256 ug/ml measured after 22 hrs; details: dose <= 256.0 µg/ml
Staphylococcus aureus [27] = assay: Binding affinity to Staphylococcus aureus ATCC6538 Phosphatidylglycerol assessed as change in MIC at upto 256 ug/ml measured after 22 hrs; details: dose <= 256.0 µg/ml
[28] = Binding affinity to Staphylococcus aureus ATCC6538 Cardiolipin assessed as dissociation constant by ITC analysis
Staphylococcus aureus [29] = assay: Antimicrobial activity against Staphylococcus aureus ATCC6538 assessed as increase in ROS levels measured upto 180 mins in presence of chloramphenicol by H2DCFDA probe based flow cytometry; assay type: functional, organism-based
[30] = Toxicity in BALB/c mouse assessed as as change in ALT level at 25 to 50 mg/kg, iv; assay type: organism-based; details: in vivo, dose 25-50 mg/kg
[31] = Toxicity in BALB/c mouse assessed as as change in BUN level at 25 to 50 mg/kg, iv; assay type: organism-based; details: in vivo, dose 25-50 mg/kg
[32] = Toxicity in BALB/c mouse assessed as as effect on heart at 25 to 50 mg/kg, iv by H and E staining based analysis; assay type: organism-based; details: in vivo, dose 25-50 mg/kg
[33] = Toxicity in BALB/c mouse assessed as as effect on liver at 25 to 50 mg/kg, iv by H and E staining based analysis; assay type: organism-based; details: in vivo, dose 25-50 mg/kg
[34] = Toxicity in BALB/c mouse assessed as as effect on kidney at 25 to 50 mg/kg, iv by H and E staining based analysis; assay type: organism-based; details: in vivo, dose 25-50 mg/kg
Staphylococcus aureus [35] = assay: In vivo antibacterial activity against methicillin-resistant Staphylococcus aureus clinical isolate MRS153 infected in C57BL/6N mouse model assessed as reduction in bacterial load in heart at 3.125 to 12.5 mg/kg, iv measured after 24 hrs; assay type: functional, organism-based; details: dose 3.125-12.5 mg/kg
Staphylococcus aureus [36] = assay: Antibacterial activity against methicillin-resistant Staphylococcus aureus clinical isolate MRS153 infected in C57BL/6N mouse model assessed as infiltration of inflammatory cells at 3.125 to 12.5 mg/kg, iv; assay type: functional, organism-based; details: dose 3.125-12.5 mg/kg
Staphylococcus aureus [37] = assay: Antibacterial activity against methicillin-resistant Staphylococcus aureus clinical isolate MRS153 infected in C57BL/6N mouse model assessed as improvement in survival rate at 3.125 to 12.5 mg/kg, iv administered as single dose measured for 7 days; assay type: functional, organism-based; details: dose 3.125-12.5 mg/kg, time 7.0 day
Staphylococcus aureus [38] = assay: Upregulation of repair gene expression in Staphylococcus aureus ATCC6538 at 5 ug/ml incubated for 2 hrs by RNA sequencing analysis; assay type: functional, organism-based; details: dose 5.0 µg/ml

`O=C(CCC(F)(F)F)N(Cc1cc2ccccc2s1)c1cc(-c2noc(C(F)(F)F)n2)ccc1O` gave an MIC (Staphylococcus aureus [1]) of 0.25 µg/mL (≈ 0.485 µM), an MIC (Staphylococcus aureus [2]) of 0.25 µg/mL (≈ 0.485 µM) and an MIC (Streptomyces albus) of under 0.5 µg/mL. For the same molecule, the IC50 at 24 h [3] was over 25 µg/mL, the Activity (Staphylococcus aureus [4]) was “Active” and the MIC (Staphylococcus aureus [5]) was 1 µg/mL (≈ 1.94 µM). For the same molecule, the MIC (Staphylococcus aureus [6]) was 1 µg/mL (≈ 1.94 µM), the MIC (Staphylococcus aureus [7]) was 1 µg/mL (≈ 1.94 µM) and the MIC (Staphylococcus aureus [8]) was 2 µg/mL (≈ 3.88 µM). The Activity (Staphylococcus aureus [9]) was “Active”, the Activity (Staphylococcus aureus [10]) was “Active” and the Activity (Staphylococcus aureus [11]) was “Active”. For the same molecule, the Activity (Cell membrane [12]) was “Dose-Dependent Effect”, the Activity (Cell membrane [13]) was “Active” and the Activity (Cell membrane [14]) was “Active”. For the same molecule, the Activity (Staphylococcus aureus [15]) was “inactive”, the Activity (Staphylococcus aureus [16]) was “Active” and the Activity (Staphylococcus aureus [17]) was “Active”. The MIC (Staphylococcus aureus [18]) was 0.5 µg/mL (≈ 0.97 µM), the Activity (Staphylococcus aureus [19]) was “Dose-Dependent Effect” and the Activity (Cell membrane [20]) was “Active”. For the same molecule, the Activity (Cell membrane [21]) was “Active”, the Activity (Cell membrane [22]) was “Active” and the Activity (Staphylococcus aureus [23]) was “Active”. For the same molecule, the Activity (Staphylococcus aureus [24]) was “Active”, the Activity (Peptidoglycan [25]) was “inactive” and the Activity (Peptidoglycan [26]) was “inactive”. For the same molecule, the Activity (Staphylococcus aureus [27]) was “inactive”, the Kd [28] was 5.75 µM and the Activity (Staphylococcus aureus [29]) was “inactive”. The Activity [30] was “Non-Toxic”, the Activity [31] was “Non-Toxic” and the Activity [32] was “Non-Toxic”. For the same molecule, the Activity [33] was “Non-Toxic”, the Activity [34] was “Non-Toxic” and the Activity (Staphylococcus aureus [35]) was “Active”. For the same molecule, the Activity (Staphylococcus aureus [36]) was “Active”, the Activity (Staphylococcus aureus [37]) was “Active” and the Activity (Staphylococcus aureus [38]) was “Active”.
